From patent publication US20220160814A1, “COMPOSITIONS AND METHODS FOR PROTECTING TYPE 2 ALVEOLAR EPITHELIAL CELLS (AEC2)” (Lung Therapeutics, Inc., priority 2019, published 2022)
Where no end group is shown, it is not given here.

Tested on: IPF fibroblasts
Assay type: cell-based
Description: FIGS. 1A-B. CSP7 deactivates IPF lung fibroblasts. IPF fibroblasts were treated with control peptide, TGFβ (a positive control to stimulate collagen), or a single dose of CSP7 and assayed 24 h later using ELISA against human collagen 1α1 (FIG. 1A). A cell titer glo assay was used to label live IPF fibroblasts grown on 96 well plates (FIG. 1B).
A cell titer glo assay (Promega, G7570) was used to label live IPF fibroblasts grown on 96 well plates. IPF fibroblasts have a senescent phenotype, and as such they release factors that contribute to aberrant wound healing. Inducing apoptosis in IPF fibroblasts may […]. Luminescence was read in a plate reader. […] Luminescence is proportional to living cell number, i.e., a decrease in luminescence correlates with cell death.

FTTFTVT [CSP7, FTTFTVT]
apoptosis / live cell number (luminescence): did not stimulate apoptosis
